From patent EP0542355A1, “Amorphous (Quinolin-2-ylmethoxy)indoles as leukotriene antagonists” (MERCK FROSST CANADA INC., priority 1991, dated 1993)
“And” between values parts separate entries of the source, which are not always exact repeats. Equal entries are not always repeated. Structures can show the parent of a compound that is named as a salt. Where two headings read alike, the source gives them in different places.

Key:
[1] = Stability of saturated aqueous solutions against precipitation of the crystalline form; format: physicochemical; conditions: do not readily precipitate the crystalline form even when seeded with the crystalline allotrope
Bioavailability = format: in vivo
[2] = Stability of the solid on storage, followed by water solubility; format: physicochemical; conditions: solid stored three months at 30°C and 60°C at ambient humidity and at 30°C/79% relative humidity
Procedure: (§1) No change in water solubility has been observed even when stored for three months at 30°C and 60°C at ambient humidity and at 30°C/79% relative humidity.

[3] = Stability to chemical decomposition; format: physicochemical; conditions: in the solid form and in aqueous solution
Procedure: as §1

Aqueous solubility = format: physicochemical
Procedure: Solubility was measured by stirring […] in water (10 mL) of amorphous L-708 at room temperature. At 48 hrs. 1 mL of the suspension was drawn and centrifuged. The supernatant was diluted and content of amorphous L-708 was measured by both U.V. spectrophotometry and by HPLC. This gave a concentration of 55 mg/mL.

Compound	stability of saturated aqueous solutions [1]	bioavailability (Bioavailability; compared with L-708 Na⁺ salt)	change in water solubility on storage [2]	stability to chemical decomposition [3]	solubility (Aqueous solubility; de-ionized water, in de-ionized water at 25°C, read-out: solubility)	solubility at 48 h (Aqueous solubility; water, 100 mg/mL stirred in water (10 mL) at room temperature, 48 hrs, U.V. spectrophotometry and HPLC, read-out: Solubility (concentration in supernatant))	solubility (Aqueous solubility; water, not tested higher, read-out: Solubility in water)	oral bioavailability (Bioavailability; oral)	solubility (Aqueous solubility; water, crystalline sodium salt, read-out: aqueous solubility)
CC(C)(C)Sc1c(CC(C)(C)C(=O)O)n(Cc2ccc(Cl)cc2)c2ccc(OCc3ccc4ccccc4n3)cc12 [amorphous L-708, Amorphous 3-[N-(p-chlorobenzyl)-3-(t-butylthio)-5-(quinolin-2-ylmethoxy)indol-2-yl]-2,2-dimethylpropanoic acid, sodium salt]	highly stable	much more bioavailable than L-708 Na⁺ salt	No change	highly stable to chemical decomposition	55 mg/mL	55 mg/mL	≥ 3000 µg/mL and ≥ 5000 µM		
CC(C)(C)Sc1c(CC(C)(C)C(=O)O)n(Cc2ccc(Cl)cc2)c2ccc(OCc3ccc4ccccc4n3)cc12 [L-708 Na⁺ salt, Crystalline 3-[N-(p-chlorobenzyl)-3-(t-butylthio)-5-(quinolin-2-ylmethoxy)indol-2-yl]-2.2-dimethylpropanoic acid, sodium salt, reference compound]								low oral bioavailability	0.005 to 0.03 mg/mL
